Where “and” joins values, the source holds several entries; their conditions need not be identical. Equal values may be shown once.

This experiment deals with T1, PfCRT^Dd2_I260A (Plasmodium falciparum, UniProt Q8IBZ9, A220S/I260A/I356T/K76T/M74I/N326S/N75E/Q271E/R371I).
T1 construct: expressed in transfected cells; host or cells: Xenopus laevis oocytes
T1 sequence (Q8IBZ9 1-424 M74I/N75E/K76T/A220S/I260A/Q271E/N326S/I356T/R371I): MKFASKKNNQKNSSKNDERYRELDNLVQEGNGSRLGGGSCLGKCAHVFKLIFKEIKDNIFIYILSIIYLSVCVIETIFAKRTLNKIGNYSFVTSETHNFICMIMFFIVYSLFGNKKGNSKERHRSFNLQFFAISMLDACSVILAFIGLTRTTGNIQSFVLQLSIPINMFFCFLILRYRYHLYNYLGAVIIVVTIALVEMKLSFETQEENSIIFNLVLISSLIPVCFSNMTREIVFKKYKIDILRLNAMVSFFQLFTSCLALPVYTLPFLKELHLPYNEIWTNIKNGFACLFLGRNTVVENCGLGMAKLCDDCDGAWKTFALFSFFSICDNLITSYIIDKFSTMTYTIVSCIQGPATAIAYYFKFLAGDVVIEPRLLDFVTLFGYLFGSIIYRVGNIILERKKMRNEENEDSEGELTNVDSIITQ
The experiment can be described thus: PfCRT-mediated CQ transport in oocytes expressing PfCRT^Dd2_I260A. It counts as cell-based. The note with it: S6 Fig; per biological replicate. From the text:
The docking results reflect the differences in the experimentally measured affinities of the two compounds for PfCRT^Dd2, with CQ having less favorable docking scores compared to PPQ (S1 Table). […] In this pose, CQ forms polar contacts via the two positively charged nitrogens: the nitrogen of the diethylamino tail makes a salt bridge with E75 on TM1 and the nitrogen of the 4-amminoquinoline ring makes a hydrogen bond with S257 on TM7. Hydrophobic contacts are established by the quinoline ring with I260, V141, and F145.
Drug transport assays were performed as previously described. Briefly, measurements of radiolabeled drug uptake were made over 1 h, unless otherwise specified. […] Where specified, one or more unlabeled drugs were also present at the indicated concentrations. […] The radioactivity in the sample was measured using a liquid scintillation analyser Tri-Carb 4910 TR (PerkinElmer). Water-injected oocytes were analyzed in parallel as a negative control. The buffer from each condition was measured in duplicate in parallel to each experiment to transform counts per minute into pmol of drug. Drug uptake attributable to PfCRT was determined by subtracting the background uptake from water-injected oocytes from that of PfCRT-expressing oocytes. […]

For `CCN(CC)CCCC(C)Nc1ccnc2cc(Cl)ccc12` (stereo not shown) [CQ, chloroquine], the “PfCRTDd2_I260A-mediated CQ transport” value is 2.260 pmol oocyte-1 h-1 and 2.400 pmol oocyte-1 h-1 and 3.540 pmol oocyte-1 h-1.

Source of the values: article PMC10281575, “PfCRT mutations conferring piperaquine resistance in falciparum malaria shape the kinetics of quinoline drug binding and transport” (PLOS Pathogens, 2023).
